Assay results as given in patent publication US20130065818A1, “Arylamide Compounds And Compositions And Uses Thereof” (POLYMEDIX, priority 2006, published 2013).
In brackets after ≈: the same amount, converted by molar mass. Like-named read-outs stand apart in the source and are kept apart here.

Key:
Type in all cases: cell-based
[1] = tested on: Staphylococcus aureus fluoroquinolone-susceptible; experiment: MIC, 25 ocular isolates, broth microdilution (Example 8)
Procedure: • Mueller-Hinton Broth in tubes was inoculated with 25 ocular isolates of Staphylococcus aureus fluoroquinolone-susceptible, Staphylococcus aureus fluoroquinolone-resistant, Staphylococcus epidermidis (Coagulase-negative Staphylococcus) fluoroquinolone-susceptible, Staphylococcus epidermidis (Coagulase-negative Staphylococcus) fluoroquinolone-resistant, Pseudomonas aeruginosa and Serratia marcescens, plus two controls (Staphylococcus aureus and E. coli) and incubated at 37° C. overnight on a shaker set at 250 rpm.
On the day of testing, a 640 μg/ml (1280 μg/ml for Serratia marcescens and Pseudomonas aeruginosa) concentration was prepared from a 1% stock solution in 0.01% acetic acid, 0.2% BSA in polypropylene tubes.
Serial doubling dilutions in 0.01% acetic acid, 0.2% BSA in 96 well polypropylene plates, which are used as reservoirs for the inoculation of the test plates, were carried out to obtain serial dilutions of test agents at 10 times the required test concentrations: 640, 320, 160, 80, 40, 20, 10, 5, 2.5, 1.25, and 0.625 μg/ml (1280, 640, 320, 160, 80, 40, 20, 10, 5, 2.5, and 1.25 μg/ml for Serratia marcescens and Pseudomonas aeruginosa).
Ten μl of diluted 10×test agents was added to each well of one row of the 96 well polypropylene plates from column 2 to column 12 (column 1 is a control for bacteria alone, with no peptide). Test agent concentrations in columns 2-12 were as follows: 64, 32, 16, 8, 4, 2, 1, 0.5, 0.25, 0.125, and 0.0625 μg/ml (128, 64, 32, 16, 8, 4, 2, 1, 0.5, 0.25, and 0.125 μg/ml for Serratia marcescens and Pseudomonas aeruginosa). The same peptide was in each of the 8 rows. One plate contained dilutions of one test agent and 8 bacterial isolates.
On the day of testing, the overnight bacterial broth cultures of Staphylococcus aureus fluoroquinolone-susceptible, Staphylococcus aureus fluoroquinolone-resistant, Staphylococcus epidermidis (Coagulase-negative Staphylococcus) fluoroquinolone-susceptible, Staphylococcus epidermidis (Coagulase-negative Staphylococcus) fluoroquinolone-resistant, Serratia marcescens, and Pseudomonas aeruginosa, plus two controls (Staphylococcus aureus and E. coli) were diluted in 5 ml of trypticase soy broth to yield turbidity equal to a 0.5 McFarland standard. The final inoculum for MIC testing for Staphylococcus aureus fluoroquinolone-susceptible, Staphylococcus aureus fluoroquinolone-resistant, Staphylococcus epidermidis (Coagulase-negative Staphylococcus) fluoroquinolone-susceptible, Staphylococcus epidermidis (Coagulase-negative Staphylococcus) fluoroquinolone-resistant, Serratia marcescens, and Pseudomonas aeruginosa was achieved by placing 0.05 ml of the turbidity adjusted sample to 5 ml of Mueller-Hinton broth.
Ninety μl of the bacterial suspensions was dispensed in each well from column 1 to column 12. Each bacterial isolate was placed in one row of a 96 well polypropylene plate containing the test agents. The plates were placed on shaker at 15 minutes at room temperature, and then incubated at 37° C. overnight. MICs were determined visually as the lowest concentration of drug that inhibits visible bacterial growth.

Serratia marcescens = experiment: as above
[2] = tested on: K. pneumoniae Lab Strain KP10; experiment: MIC, laboratory strains (Example 8)

## N=C(N)NCCCCC(=O)Nc1cc(C(F)(F)F)cc(NC(=O)c2cnc(C(=O)Nc3cc(C(F)(F)F)cc(NC(=O)CCCCNC(=N)N)c3SCCN)cn2)c1SCCN [Oligomer 5]
[1]; 25 isolates, Row 13
  MIC50: 0.25 µg/mL (≈ 0.273 µM)
[1]; 25 isolates, Row 22
  MIC90: 0.25 µg/mL (≈ 0.273 µM)
[1]; 25 isolates, Summary of Results
  Range of MICs: 0.125 to 0.5 µg/mL
[1]; Staphylococcus aureus, 25 ocular isolates, read-out: Median MIC
  MIC: ≤ 0.25 µg/mL
[1]; Staphylococcus aureus, isolate 1—E402, read-out: MIC
  MIC: 0.5 µg/mL (≈ 0.545 µM)
[1]; Staphylococcus aureus, isolate 2—E1512, read-out: MIC
  MIC: 0.25 µg/mL (≈ 0.273 µM)
[1]; Staphylococcus aureus, isolate 3—E253, read-out: MIC
  MIC: 0.25 µg/mL (≈ 0.273 µM)
[1]; Staphylococcus aureus, isolate 4—K1518, read-out: MIC
  MIC: 0.125 µg/mL (≈ 0.136 µM)
[1]; Staphylococcus aureus, isolate 5—K1525, read-out: MIC
  MIC: 0.125 µg/mL (≈ 0.136 µM)
[1]; Staphylococcus aureus, isolate 6—K1663, read-out: MIC
  MIC: 0.125 µg/mL (≈ 0.136 µM)
[1]; Staphylococcus aureus, isolate 7—K1648, read-out: MIC
  MIC: 0.125 µg/mL (≈ 0.136 µM)
[1]; Staphylococcus aureus, isolate 8—K1646, read-out: MIC
  MIC: 0.25 µg/mL (≈ 0.273 µM)
[1]; Staphylococcus aureus, isolate 9—K1642, read-out: MIC
  MIC: 0.25 µg/mL (≈ 0.273 µM)
[1]; Staphylococcus aureus, isolate 10—K1638, read-out: MIC
  MIC: 0.25 µg/mL (≈ 0.273 µM)
[1]; Staphylococcus aureus, isolate 11—K1628, read-out: MIC
  MIC: 0.25 µg/mL (≈ 0.273 µM)
[1]; Staphylococcus aureus, isolate 12—K1618, read-out: MIC
  MIC: 0.125 µg/mL (≈ 0.136 µM)
[1]; Staphylococcus aureus, isolate 13—K1617, read-out: MIC
  MIC: 0.25 µg/mL (≈ 0.273 µM)
[1]; Staphylococcus aureus, isolate 14—K1611, read-out: MIC
  MIC: 0.25 µg/mL (≈ 0.273 µM)
[1]; Staphylococcus aureus, isolate 15—K1607, read-out: MIC
  MIC: 0.25 µg/mL (≈ 0.273 µM)
[1]; Staphylococcus aureus, isolate 16—K1600, read-out: MIC
  MIC: 0.125 µg/mL (≈ 0.136 µM)
[1]; Staphylococcus aureus, isolate 17—K1591, read-out: MIC
  MIC: 0.5 µg/mL (≈ 0.545 µM)
[1]; Staphylococcus aureus, isolate 18—K1585, read-out: MIC
  MIC: 0.25 µg/mL (≈ 0.273 µM)
[1]; Staphylococcus aureus, isolate 19—K1583, read-out: MIC
  MIC: 0.25 µg/mL (≈ 0.273 µM)
[1]; Staphylococcus aureus, isolate 20—K1574, read-out: MIC
  MIC: 0.25 µg/mL (≈ 0.273 µM)
[1]; Staphylococcus aureus, isolate 21—K1566, read-out: MIC
  MIC: 0.25 µg/mL (≈ 0.273 µM)
[1]; Staphylococcus aureus, isolate 22—K1551, read-out: MIC
  MIC: 0.125 µg/mL (≈ 0.136 µM)
[1]; Staphylococcus aureus, isolate 23—K1545, read-out: MIC
  MIC: 0.25 µg/mL (≈ 0.273 µM)
[1]; Staphylococcus aureus, isolate 24—K1540, read-out: MIC
  MIC: 0.25 µg/mL (≈ 0.273 µM)
[1]; Staphylococcus aureus, isolate 25—K1530, read-out: MIC
  MIC: 0.5 µg/mL (≈ 0.545 µM)
[1]; Staphylococcus aureus, n=25 per group, read-out: Median MIC
  MIC: 0.25 µg/mL (≈ 0.273 µM)
[1]; Staphylococcus aureus, 25 isolates, Summary of Results, read-out: MIC50
  MIC50: 0.25 µg/mL (≈ 0.273 µM)
[1]; Staphylococcus aureus, 25 isolates, Summary of Results, read-out: MIC90
  MIC90: 0.5 µg/mL (≈ 0.545 µM)
[1]; Staphylococcus aureus, 25 isolates, Summary of Results, read-out: Median MIC
  MIC: 0.25 µg/mL (≈ 0.273 µM)
[1]; n=25 per group
  MIC50: 0.25 µg/mL (≈ 0.273 µM)
  MIC90: 0.5 µg/mL (≈ 0.545 µM)
  Range of MICs: 0.125 to 0.5 µg/mL
Serratia marcescens; 25 isolates, Row 13, >128 was Replaced with 256
  MIC50: 256 µg/mL (≈ 279 µM)
Serratia marcescens; 25 isolates, Row 22, >128 was Replaced with 256
  MIC90: 256 µg/mL (≈ 279 µM)
Serratia marcescens; 25 isolates, Summary of Results, >128 was Replaced with 256
  Range of MICs: 8 to 256 µg/mL
Serratia marcescens; Serratia marcescens, 25 ocular isolates, read-out: Median MIC
  MIC: 128 µg/mL (≈ 140 µM)
Serratia marcescens; Serratia marcescens, isolate 1—K1681, read-out: MIC
  MIC: > 128 µg/mL
Serratia marcescens; Serratia marcescens, isolate 2—K1674, read-out: MIC
  MIC: > 128 µg/mL
Serratia marcescens; Serratia marcescens, isolate 3—K1558, read-out: MIC
  MIC: > 128 µg/mL
Serratia marcescens; Serratia marcescens, isolate 4—K1538, read-out: MIC
  MIC: > 128 µg/mL
Serratia marcescens; Serratia marcescens, isolate 5—K1503, read-out: MIC
  MIC: > 128 µg/mL
Serratia marcescens; Serratia marcescens, isolate 6—K1216, read-out: MIC
  MIC: > 128 µg/mL
Serratia marcescens; Serratia marcescens, isolate 7—K1496, read-out: MIC
  MIC: > 128 µg/mL
Serratia marcescens; Serratia marcescens, isolate 8—K1481, read-out: MIC
  MIC: > 128 µg/mL
Serratia marcescens; Serratia marcescens, isolate 9—K1470, read-out: MIC
  MIC: > 128 µg/mL
Serratia marcescens; Serratia marcescens, isolate 10—K1468, read-out: MIC
  MIC: > 128 µg/mL
Serratia marcescens; Serratia marcescens, isolate 11—K1467, read-out: MIC
  MIC: > 128 µg/mL
Serratia marcescens; Serratia marcescens, isolate 12—K1462, read-out: MIC
  MIC: > 128 µg/mL
Serratia marcescens; Serratia marcescens, isolate 13—K1461, read-out: MIC
  MIC: 128 µg/mL (≈ 140 µM)
Serratia marcescens; Serratia marcescens, isolate 14—K1413, read-out: MIC
  MIC: > 128 µg/mL
Serratia marcescens; Serratia marcescens, isolate 15—K1402, read-out: MIC
  MIC: 8 µg/mL (≈ 8.72 µM)
Serratia marcescens; Serratia marcescens, isolate 16—K1357, read-out: MIC
  MIC: > 128 µg/mL
Serratia marcescens; Serratia marcescens, isolate 17—K1351, read-out: MIC
  MIC: 64 µg/mL (≈ 69.8 µM)
Serratia marcescens; Serratia marcescens, isolate 18—K1327, read-out: MIC
  MIC: > 128 µg/mL
Serratia marcescens; Serratia marcescens, isolate 19—K1321, read-out: MIC
  MIC: > 128 µg/mL
Serratia marcescens; Serratia marcescens, isolate 20—K1315, read-out: MIC
  MIC: > 128 µg/mL
Serratia marcescens; Serratia marcescens, isolate 21—K1306, read-out: MIC
  MIC: > 128 µg/mL
Serratia marcescens; Serratia marcescens, isolate 22—K1290, read-out: MIC
  MIC: > 128 µg/mL
Serratia marcescens; Serratia marcescens, isolate 23—K1265, read-out: MIC
  MIC: > 128 µg/mL
Serratia marcescens; Serratia marcescens, isolate 24—K1263, read-out: MIC
  MIC: > 128 µg/mL
Serratia marcescens; Serratia marcescens, isolate 25—K1239, read-out: MIC
  MIC: > 128 µg/mL
Serratia marcescens; Serratia marcescens, n=25 per group, read-out: Median MIC
  MIC: 256 µg/mL (≈ 279 µM)
Serratia marcescens; Serratia marcescens, 25 isolates, Summary of Results, >128 was Replaced with 256, read-out: MIC50
  MIC50: 256 µg/mL (≈ 279 µM)
Serratia marcescens; Serratia marcescens, 25 isolates, Summary of Results, >128 was Replaced with 256, read-out: MIC90
  MIC90: 256 µg/mL (≈ 279 µM)
Serratia marcescens; Serratia marcescens, 25 isolates, Summary of Results, >128 was Replaced with 256, read-out: Median MIC
  MIC: 256 µg/mL (≈ 279 µM)
Serratia marcescens; n=25 per group
  MIC50: 256 µg/mL (≈ 279 µM)
  MIC90: 256 µg/mL (≈ 279 µM)
  Range of MICs: 8 to 256 µg/mL
[2]
  MIC: 1.56 µg/mL (≈ 1.7 µM)
